Experimental data: publication PMC3723632, “A Multi-targeted Drug Candidate with Dual Anti-HIV and Anti-HSV Activity” (PLoS Pathogens, 2013)
Like-named read-outs stand apart in the source and are kept apart here.

What was measured:
HIV-1 RT = target: T1, HIV-1 RT (Human immunodeficiency virus type 1 group M subtype B, UniProt P03366); assay: HIV-1 reverse transcriptase assay; type: biochemical; details: poly rU.dA primer/template
T1 construct: 4 µl of recombinant HIV-1 RT
Description: […] In the HSV DNA polymerase assays, the inhibitory effect of adefovir-pp or PMEA-DAPym-pp on herpesvirus DNA polymerase-catalyzed polymerization was also determined in the presence of radiolabeled [^3H]dGTP (1 mCi/ml; 2.8 µM), [^3H]dTTP (1 mCi/ml; 1 µM), or [^3H]dCTP (1 mCi/ml; 2.5 µM) as competing dNTP in the presence of 0.8 µl (5 mM) of the other dNTPs in the reaction mixture as described above. The reaction was started by the addition of 4 µl of recombinant HSV-1 DNA polymerase (kindly provided by M.W. Wathen, at that time at Pfizer, Kalamazoo, MI) or 4 µl of recombinant HIV-1 RT (in 20 mM Tris.HCl, pH 8.0; 1 mM DTT; 0.1 mM EDTA; 0.2 M NaCl; 40% glycerol), and the reaction mixture was incubated for 60 min (HSV-1 DNA polymerase) or 30 min (HIV-1 RT) at 37°C. Then, 1 ml of ice-cold 5% TCA in 0.02 M Na4P2O7.10 H2O was added to terminate the polymerisation reaction, after which the acid-insoluble precipitate (radiolabeled DNA) was captured onto Whatman glass fiber filters (type GF/C; GE Healthcare UK Limited, Buckinghamshire, UK) and further washed with 5% TCA and ethanol to remove free radiolabeled dNTP. Radioactivity was determined in a Perkin Elmer Tri-Carb 2810 TR liquid scintillation counter.

HSV DNA polymerase = target: T2, HSV DNA polymerase (Human herpesvirus 1, UniProt P04293); assay: HSV DNA polymerase assay; type: biochemical
T2 construct: gift of M.W. Wathen (Pfizer, Kalamazoo, MI)
Description: The reaction mixture (40 µl) for the HSV-1 DNA polymerase and HIV-1 RT assays contained 4 µl of Premix (200 mM Tris.HCl, pH 7.5; 2 mM DTT; 30 mM MgCl2), 4 µl of BSA (5 mg/ml), 1.6 µl of activated calf thymus DNA (1.25 mg/ml), 0.8 µl of dCTP (5 mM), 0.8 µl of dTTP (5 mM), 0.8 µl of dGTP (5 mM), 2 µl of radiolabeled [^3H]dATP (1 mCi/ml) (3.2 µM), 18 µl of H2O, and 4 µl of adefovir-pp or PMEO-DAPym-pp at different concentrations (i.e., 200, 20, 2, and 0.2 µM). In the HSV DNA polymerase assays, the inhibitory effect of adefovir-pp or PMEA-DAPym-pp on herpesvirus DNA polymerase-catalyzed polymerization was also determined in the presence of radiolabeled [^3H]dGTP (1 mCi/ml; 2.8 µM), [^3H]dTTP (1 mCi/ml; 1 µM), or [^3H]dCTP (1 mCi/ml; 2.5 µM) as competing dNTP in the presence of 0.8 µl (5 mM) of the other dNTPs in the reaction mixture as described above. The reaction was started by the addition of 4 µl of recombinant HSV-1 DNA polymerase (kindly provided by M.W. Wathen, at that time at Pfizer, Kalamazoo, MI) or 4 µl of recombinant HIV-1 RT (in 20 mM Tris.HCl, pH 8.0; 1 mM DTT; 0.1 mM EDTA; 0.2 M NaCl; 40% glycerol), and the reaction mixture was incubated for 60 min (HSV-1 DNA polymerase) or 30 min (HIV-1 RT) at 37°C. Then, 1 ml of ice-cold 5% TCA in 0.02 M Na4P2O7.10 H2O was added to terminate the polymerisation reaction, after which the acid-insoluble precipitate (radiolabeled DNA) was captured onto Whatman glass fiber filters (type GF/C; GE Healthcare UK Limited, Buckinghamshire, UK) and further washed with 5% TCA and ethanol to remove free radiolabeled dNTP. Radioactivity was determined in a Perkin Elmer Tri-Carb 2810 TR liquid scintillation counter.

T2 sequence (P04293 whole entry): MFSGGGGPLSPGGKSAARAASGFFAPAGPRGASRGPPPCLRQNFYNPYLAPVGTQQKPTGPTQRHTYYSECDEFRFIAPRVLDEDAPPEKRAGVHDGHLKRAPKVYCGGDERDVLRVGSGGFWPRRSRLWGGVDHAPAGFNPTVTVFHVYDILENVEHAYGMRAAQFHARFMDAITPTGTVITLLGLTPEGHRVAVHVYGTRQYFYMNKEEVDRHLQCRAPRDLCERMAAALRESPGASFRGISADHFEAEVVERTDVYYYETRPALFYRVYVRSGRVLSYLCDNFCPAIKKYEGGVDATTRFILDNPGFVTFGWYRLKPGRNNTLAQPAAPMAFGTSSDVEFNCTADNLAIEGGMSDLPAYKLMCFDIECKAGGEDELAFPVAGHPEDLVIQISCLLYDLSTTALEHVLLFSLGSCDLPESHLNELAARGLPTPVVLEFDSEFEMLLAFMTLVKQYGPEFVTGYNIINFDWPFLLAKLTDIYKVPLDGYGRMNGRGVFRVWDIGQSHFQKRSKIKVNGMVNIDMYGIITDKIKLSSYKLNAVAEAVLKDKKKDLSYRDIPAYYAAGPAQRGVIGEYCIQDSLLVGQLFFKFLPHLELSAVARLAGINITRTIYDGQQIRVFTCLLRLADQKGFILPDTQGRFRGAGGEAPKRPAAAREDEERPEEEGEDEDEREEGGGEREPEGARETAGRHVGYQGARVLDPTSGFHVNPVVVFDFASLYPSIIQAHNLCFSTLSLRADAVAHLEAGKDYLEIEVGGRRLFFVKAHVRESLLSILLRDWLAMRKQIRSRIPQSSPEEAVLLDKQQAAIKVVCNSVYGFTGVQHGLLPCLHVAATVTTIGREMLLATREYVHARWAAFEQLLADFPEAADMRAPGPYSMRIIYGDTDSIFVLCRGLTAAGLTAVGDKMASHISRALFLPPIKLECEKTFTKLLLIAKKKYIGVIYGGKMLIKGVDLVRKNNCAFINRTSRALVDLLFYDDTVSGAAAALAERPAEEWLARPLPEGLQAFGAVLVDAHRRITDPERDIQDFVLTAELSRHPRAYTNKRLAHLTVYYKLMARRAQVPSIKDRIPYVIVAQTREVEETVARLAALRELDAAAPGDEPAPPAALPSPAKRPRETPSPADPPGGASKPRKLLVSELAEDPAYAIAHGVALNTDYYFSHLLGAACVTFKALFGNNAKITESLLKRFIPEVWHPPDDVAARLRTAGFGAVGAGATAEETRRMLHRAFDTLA

Compound | IC50 (HIV-1 RT; IC50, dATP (3.2 µM) as competing substrate) [µM] | IC50 (HSV DNA polymerase; [3H]dATP as competing substrate, gapped calf thymus DNA, read-out: IC50 (converted)) [µM] | IC50 (HSV DNA polymerase; [3H]dCTP as competing substrate, gapped calf thymus DNA, read-out: IC50 (converted)) [µM] | IC50 (HSV DNA polymerase; [3H]dGTP as competing substrate, gapped calf thymus DNA, read-out: IC50 (converted)) [µM] | IC50 (HSV DNA polymerase; [3H]dTTP as competing substrate, gapped calf thymus DNA, read-out: IC50 (converted)) [µM] | IC50 (HSV DNA polymerase; dCTP, dGTP, dTTP, range, read-out: IC50, incorporation of other [3H]dNTPs) [µM] | IC50 (HIV-1 RT; dATP (3.2 µM) as competing substrate) [µg/mL] | IC50 (HSV DNA polymerase; [3H]dATP as competing substrate, gapped calf thymus DNA) [µg/mL] | IC50 (HSV DNA polymerase; [3H]dCTP as competing substrate, gapped calf thymus DNA) [µg/mL] | IC50 (HSV DNA polymerase; [3H]dGTP as competing substrate, gapped calf thymus DNA) [µg/mL] | IC50 (HSV DNA polymerase; [3H]dTTP as competing substrate, gapped calf thymus DNA) [µg/mL] | IC50, incorporation of other [3H]dNTPs (HSV DNA polymerase; dCTP, dGTP, dTTP, range) [µg/mL]
Nc1ncnc2c1ncn2CCOCP(=O)(O)OP(=O)(O)OP(=O)(O)O [Adefovir-pp] | 0.923 | 0.993 | 3.92 | 3.46 | 4.85 | 3.46 to 4.85 |  |  |  |  |  | 
C[C@@H](Cn1cnc2c(N)ncnc21)OCP(=O)(O)OP(=O)(O)OP(=O)(O)O [Tenofovir-pp] |  |  |  |  |  |  | 0.43 ± 0.21 | 0.48 ± 0.04 | 32 ± 2.2 | 8.9 ± 6.3 | 11 ± 4.8 | 8.9 to 32
